Data set [1] relates to HKB-11 human lymphoma cells. Description: Alamar Blue antiproliferative assay, HKB-11. Format: cell-based. The settings on record: HKB-11, 72 h, single postbiotics, GraphPad Prism nonlinear regression, read-out: IC50 (concentration required to inhibit 50% of cell growth). As to the method: The cell viability of the HKB-11, Hs 313.T, and HS-5 cells after treatment with different concentrations of the seven different postbiotics, including SCFA salts (magnesium acetate, sodium propionate, and sodium butyrate), UA and UB, purine nucleoside (inosine), and bacteriocin (N), was determined using the Alamar Blue assay as per the method described earlier. Briefly, 100 μL of cells was cultured in 96-well plates at a 3 × 10^5 cells/mL seeding density. After 24 h, the cells were treated with 16,000 µM of each postbiotic except for the urolithins, which were applied at 500 µM using a 1:2 serial dilution across a 10-point dose–response curve, followed by a 72 h incubation. A positive control using doxorubicin was prepared at a concentration of 4 μM, and an untreated control with 0.1% DMSO was added to every plate. At the end of the incubation period, the culture media were removed, and 100 μL of a 0.1 mg/mL Alamar Blue solution (resazurin, prepared as a stock solution at 1 mg/mL in freshly made PBS, followed by a 1:10 dilution with serum-free media) was added to each well. The fluorescence levels were assessed using a microplate spectrophotometer (BMG CLARIOstar, Mornington, VIC, Australia) with an excitation wavelength of 555 nm and emission measurement at 595 nm. The compounds were tested in triplicate, with the untreated control taken as 100% cell viability.
Data were collected and managed using MS Office Excel and GraphPad Prism for statistical analyses and visualisation. Data collection and analyses were carried out in triplicate, and the outcomes were presented as the mean ± standard deviation. Statistical significance between the mean values was determined at p ≤ 0.05 employing a two-way ANOVA. Tukey and Dunnett’s tests were utilised within GraphPad Prism software to perform nonlinear regression and multiple comparisons. Furthermore, GraphPad Prism software computed the IC50 value (representing the drug concentration required to achieve a 50% cell growth inhibition). The experimental groups in the proteomics study were compared statistically using unpaired t-tests, assuming equal variances. Candidate proteins were selected based on an absolute log2 fold change ≥ 0.58 and a Q-value ≤ 0.05. Enrichment analysis was subsequently conducted using Ingenuity Pathway Analysis (IPA), applying a significance threshold of adjusted Q ≤ 0.05 to identify functionally enriched pathways, focusing on those with an absolute z-score of ≥1.

The subject of data set [2] is HKB-11 lymphoma cells. The data set can be described thus: ROS production, H2DCFDA assay. It counts as cell-based, human. The settings on record: 4 h. As to the method:
Briefly, HKB-11 lymphoma cells (2.5 × 10^5 cells/mL) were cultured in a 96-well plate, allowed to adhere overnight, and treated with 20 μM H2DCFDA for 45 min to assess ROS levels. The dye solution was removed, and cells were washed with 1× buffer. Next, the cells were treated with N (8000 μM), N (4000 μM), UB (500 μM), UB (250 μM), N/UB (3500 μM), N/UB (1750 μM), N/UB (5750 μM), N/UB (2875 μM), Dox (4 μM), and tert-butyl hydroperoxide (TBHP) (150 μM) and then incubated at 37 °C for 4 h. Finally, the plate was immediately read at Ex/Em = 485/535 nm using a microplate spectrophotometer (BMG CLARIOstar, VIC, Australia). The fold change in ROS production was determined relative to the untreated control (cells treated with the supplement buffer according to the manufacturer’s protocol).

The subject of data set [3] is HKB-11 lymphoma cells. Description: Flow cytometry apoptosis profile, Annexin V-CF Blue / 7-AAD. It counts as cell-based, human. Particulars: 24 h. As to the method: The HKB-11 cells were cultured in T75 cell culture flasks with an initial density of 1 × 10^6 cells per 10 mL at 37 °C in the presence of 5% CO2 for 24 h. The following day, the cell culture media was removed from each flask and replaced with fresh FBS-containing media. […] An FBS-containing medium was used as the untreated control. The flasks were then incubated at 37 °C with 5% CO2 for 24 h. Then, the cell culture media from each flask were collected. Subsequently, trypsin (0.25% w/v) was applied to the flasks for 4 min at 37 °C. The trypsin reaction was neutralised with an equal volume of 10% FBS serum-containing media, and the cells were combined with the previously collected media. The cell pellets were obtained by centrifuging at 500× g for 5 min at room temperature (RT). This procedure was repeated by suspending the cell pellets in 1 mL of PBS each time. The collected cell pellets from each treatment were immediately suspended in 500 μL of 1× binding buffer and gently mixed by pipetting. Annexin V-CF Blue (5 μL) and 7-AAD (5 μL) staining solutions were added to 100 μL of the cell suspension. The stained cells were incubated for 15 min in the dark at RT, after which 400 μL of a 1× assay buffer was added to each cell suspension. Subsequently, the cells were examined using a flow cytometer (Novocyte 3000, ACEA Biosciences Inc., San Diego, CA, USA), and data analysis and processing were performed using NovoExpress software (version 1.5.0, ACEA Biosciences Inc., CA, USA). In the initial step, the cells were gated on forward and side scatter modes to exclude cell aggregates and debris near the origin. The cells were then gated on dot plots, where Annexin V-CF in Pacific Blue was plotted against 7-AAD fluorescence in PerCP. Quadrants were positioned relative to the untreated control, indicating live cells ([…] and −7-AAD) appearing in the lower-left quadrant, early apoptotic cells (+Annexin V and −7-AAD) in the lower-right quadrant, late apoptotic cells (+Annexin V and +7-AAD) in the upper-right quadrant, and necrotic cells (−Annexin V and +7-AAD) in the upper-left quadrant. For statistical analyses and visualisation, the percentage data of cells in each quadrant after different treatments (n = 3) were exported to GraphPad Prism software (version 9.0, San Diego, CA, USA).
On the technique in general: Flow cytometry measures light scatter and fluorescence of single cells or particles in a stream.

For data set [4] the following is noted: cited from earlier work. An excerpt:
Both N and UB face challenges regarding bioavailability. […] Thus, formulation strategies or delivery systems to enhance systemic exposure warrant exploration in future studies.

As for `O=c1oc2cc(O)ccc2c2ccccc12` [UB, Urolithin B], the IC50 in data set [1] is 87.6 µM. In data set [2] (HKB-11, 500 μM and 250 μM, p ≥ 0.05, n = 3), the “ROS levels compared to the untreated control” value was “minimal changes”. In data set [3] (HKB-11, 500 µM, p ≤ 0.0001), the “Apoptosis induction compared to the untreated control” value is reported as “greater apoptotic induction”. In data set [4], the Metabolism result was “extensively metabolised” and the Oral bioavailability entry is “moderate oral bioavailability”.
Regarding “Nisin (ITSISLCTPGCKTGALMGCNMKTATCHCSIHVSK; Lantibiotic nisin-A; UniProt P13068 24-57, looked up) [34-amino-acid lantibiotic peptide (bacteriocin) produced by Lactococcus lactis; purchased]”, the IC50 in data set [1] was 1470 µM. For the same compound, in data set [2] (HKB-11, 8000 μM, p ≤ 0.01, n = 3), the “ROS levels compared to the untreated control” value is “statistically significant increase”. In addition, the Apoptosis induction entry in data set [3] (HKB-11, 3200 µM, p ≤ 0.0001, compared with 8000 μM) was “induced apoptosis with greater potency”. The “Cell death relative to untreated controls” value in data set [3] (HKB-11, 8000 μM, p ≤ 0.01, apoptotic and necrotic populations elevated) is reported as “significantly increased cell death”. In data set [4], the Proteolytic stability result was “susceptibility to proteolytic degradation”, the “Stability in the gastrointestinal tract” value is on record as “degraded in the gastrointestinal tract” and the Systemic absorption entry is on record as “low systemic absorption”.

These data come from publication PMC12295306, “Gut Microbial Postbiotics as Potential Therapeutics for Lymphoma: Proteomics Insights of the Synergistic Effects of Nisin and Urolithin B Against Human Lymphoma Cells” (International Journal of Molecular Sciences, 2025).
